Tests used:
Assay in all cases: Weeding effect in post-emergence stage (greenhouse pot spray)
Assay type in all cases: in vivo
Abutilon theophrasti = tested on: Abutilon theophrasti
Summary of the method: (§1)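 Greenhouse post-emergence test: compounds were sprayed at 500, 250, 125, 60 and 15 g a.i./ha onto plants 2 weeks after sowing, and fresh weight control rates were averaged from three replicates 3 weeks later.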

Digitaria sanguinalis = tested on: Digitaria sanguinalis
Summary of the method: as §1

Echinochloa crusgalli = tested on: Echinochloa crusgalli
Summary of the method: as §1

Amaranthus retroflexus = tested on: Amaranthus retroflexus
Description: (§2) The activity level criteria for plant damage (i.e., growth control rate) are as follows:
(§3) The above growth control rates are fresh weight control rates.
(§4) Experiment on weeding effect in post-emergence stage: monocotyledonous and dicotyledonous weed seeds (Descurainia sophia, Capsella bursa-pastoris, Abutilon theophrasti, Galium aparine, Stellaria media, Lithospermum arvense, rorippa indica, Alopecurus aequalis, Beckmannia syzigachne, Sclerochloa dura, Phleum paniculatum, Bromus japonicus, Aegilops tauschii, Phalaris arundinacea, Amaranthus retroflexus, Chenopodiaceae, Commelina communis, Sonchus arvensis, convolvulus arvensis, Cirsium setosum, Solanum nigrum, Acalypha australis, Digitaria sanguinalis, Echinochloa crusgalli, Setaria viridis, Setaria glauca, Leptochloa chinensis, Monochoria vaginalis, Sagittaria trifolia, Scirpus juncoides, Cyperus rotundus, Cyperus iria, Cyperus difformis, Fimbristylis, Portulaca oleracea, Xanthium sibiricum, Pharbitis nil) and major crop seeds (wheat, corn, rice, soybean, cotton, oilseed rape, millet, sorghum, potato, sesame, ricinus) were placed in plastic pots filled with soil, then covered with 0.5-2 cm of soil, allowed to grow in a good greenhouse environment. After 2 weeks of sowing, the test plants were treated in the 2 to 3 leaf stage. The tested compounds of the present invention were respectively dissolved in acetone, then added with Tween 80 and 1.5 liter/ha of emulsifiable concentrate of methyl oleate as synergist, diluted with a certain amount of water to obtain a solution with a certain concentration, and sprayed with a spray tower onto the plants. After the application, the plants were cultured for 3 weeks in the greenhouse, and then the experimental results of the weeding were counted. The doses of the used compounds were 500, 250, 125, 60, 15 g a.i./ha, and the averages were obtained by repeating for three times.

Stellaria media = tested on: Stellaria media
Description: as §2, §3, §4

| Structure (SMILES) | Abutilion theophrasti (activity level) (Abutilon theophrasti; Table 2, dose 500 g a.i./ha) | Digitaria sanguinalis (activity level) (Digitaria sanguinalis; Table 2, dose 500 g a.i./ha) | Echinochloa crusgah (activity level) (Echinochloa crusgalli; Table 2, dose 500 g a.i./ha) | Amaranthus retroflexus (activity level) (Amaranthus retroflexus; Table 2, dose 500 g a.i./ha) | Stellaria media (activity level) (Stellaria media; Table 2, dose 500 g a.i./ha) | Abutilion theophrasti (activity level) (Abutilon theophrasti; Table 2, dose 250 g a.i./ha) | Digitaria sanguinalis (activity level) (Digitaria sanguinalis; Table 2, dose 250 g a.i./ha) | Echinochloa crusgah (activity level) (Echinochloa crusgalli; Table 2, dose 250 g a.i./ha) | Amaranthus retroflexus (activity level) (Amaranthus retroflexus; Table 2, dose 250 g a.i./ha) | Stellaria media (activity level) (Stellaria media; Table 2, dose 250 g a.i./ha) |
| --- | --- | --- | --- | --- | --- | --- | --- | --- | --- | --- |
| Cc1nnc(NC(=O)c2ccc(C(F)(F)F)c(SCC(F)(F)F)c2F)o1 [Compound 1-50] | 5 (Level 5: growth control rate is above 85%) | 5 (Level 5: growth control rate is above 85%) | 5 (Level 5: growth control rate is above 85%) | 5 (Level 5: growth control rate is above 85%) | 5 (Level 5: growth control rate is above 85%) | – | – | – | – | – |
| Cc1nnc(NC(=O)c2ccc(C(F)(F)F)c(SCCC(F)(F)F)c2F)o1 [Compound 1-51] | 5 (Level 5: growth control rate is above 85%) | 5 (Level 5: growth control rate is above 85%) | 5 (Level 5: growth control rate is above 85%) | 5 (Level 5: growth control rate is above 85%) | 5 (Level 5: growth control rate is above 85%) | – | – | – | – | – |
| Cc1nnc(NC(=O)c2ccc(C(F)(F)F)c(S(=O)(=O)CCC(F)(F)F)c2F)o1 [Compound 1-53] | 5 (Level 5: growth control rate is above 85%) | 5 (Level 5: growth control rate is above 85%) | 5 (Level 5: growth control rate is above 85%) | 5 (Level 5: growth control rate is above 85%) | 5 (Level 5: growth control rate is above 85%) | – | – | – | – | – |
| Cc1nnc(NC(=O)c2ccc(C(F)(F)F)c(SCCO)c2F)o1 [Compound 1-59] | 5 (Level 5: growth control rate is above 85%) | 5 (Level 5: growth control rate is above 85%) | 5 (Level 5: growth control rate is above 85%) | 5 (Level 5: growth control rate is above 85%) | 5 (Level 5: growth control rate is above 85%) | – | – | – | – | – |
| Cc1nnc(NC(=O)c2ccc(C(F)(F)F)c([S+]([O-])C(C)(C)C)c2F)o1 (centres unmarked) [Compound 1-137] | 5 (Level 5: growth control rate is above 85%) | 5 (Level 5: growth control rate is above 85%) | 5 (Level 5: growth control rate is above 85%) | 5 (Level 5: growth control rate is above 85%) | 5 (Level 5: growth control rate is above 85%) | – | – | – | – | – |
| Cc1nnc(NC(=O)c2ccc(C(F)(F)F)c([S+]([O-])CC(C)(C)C)c2F)o1 (centres unmarked) [Compound 1-392] | 5 (Level 5: growth control rate is above 85%) | 5 (Level 5: growth control rate is above 85%) | 5 (Level 5: growth control rate is above 85%) | 5 (Level 5: growth control rate is above 85%) | 5 (Level 5: growth control rate is above 85%) | – | – | – | – | – |
| C=CCC[S+]([O-])c1c(C(F)(F)F)ccc(C(=O)Nc2nnc(C)o2)c1F (centres unmarked) [Compound 1-397] | 5 (Level 5: growth control rate is above 85%) | 5 (Level 5: growth control rate is above 85%) | 5 (Level 5: growth control rate is above 85%) | 5 (Level 5: growth control rate is above 85%) | 5 (Level 5: growth control rate is above 85%) | – | – | – | – | – |
| CC=CC[S+]([O-])c1c(C(F)(F)F)ccc(C(=O)Nc2nnc(C)o2)c1F (centres unmarked) [Compound 1-398] | 5 (Level 5: growth control rate is above 85%) | 5 (Level 5: growth control rate is above 85%) | 5 (Level 5: growth control rate is above 85%) | 5 (Level 5: growth control rate is above 85%) | 5 (Level 5: growth control rate is above 85%) | – | – | – | – | – |
| CNCC[S+]([O-])c1c(C(F)(F)F)ccc(C(=O)Nc2nnc(C)o2)c1F (centres unmarked) [Compound 1-441] | 5 (Level 5: growth control rate is above 85%) | 5 (Level 5: growth control rate is above 85%) | 5 (Level 5: growth control rate is above 85%) | 5 (Level 5: growth control rate is above 85%) | 5 (Level 5: growth control rate is above 85%) | – | – | – | – | – |
| COC[S+]([O-])c1c(C(F)(F)F)ccc(C(=O)Nc2nnc(C)o2)c1F (centres unmarked) [Compound 1-443] | 5 (Level 5: growth control rate is above 85%) | 5 (Level 5: growth control rate is above 85%) | 5 (Level 5: growth control rate is above 85%) | 5 (Level 5: growth control rate is above 85%) | 5 (Level 5: growth control rate is above 85%) | – | – | – | – | – |
| CCOCC[S+]([O-])c1c(C(F)(F)F)ccc(C(=O)Nc2nnc(C)o2)c1F (centres unmarked) [Compound 1-446] | – | – | – | – | – | 5 (Level 5: growth control rate is above 85%) | 5 (Level 5: growth control rate is above 85%) | 5 (Level 5: growth control rate is above 85%) | 5 (Level 5: growth control rate is above 85%) | 5 (Level 5: growth control rate is above 85%) |
| COC(C)C[S+]([O-])c1c(C(F)(F)F)ccc(C(=O)Nc2nnc(C)o2)c1F (centres unmarked) [Compound 1-447] | 5 (Level 5: growth control rate is above 85%) | 5 (Level 5: growth control rate is above 85%) | 5 (Level 5: growth control rate is above 85%) | 5 (Level 5: growth control rate is above 85%) | 5 (Level 5: growth control rate is above 85%) | – | – | – | – | – |
| COCCC[S+]([O-])c1c(C(F)(F)F)ccc(C(=O)Nc2nnc(C)o2)c1F (centres unmarked) [Compound 1-448] | 5 (Level 5: growth control rate is above 85%) | 5 (Level 5: growth control rate is above 85%) | 5 (Level 5: growth control rate is above 85%) | 5 (Level 5: growth control rate is above 85%) | 5 (Level 5: growth control rate is above 85%) | – | – | – | – | – |
| CCSc1c(C(F)(F)F)ccc(C(=O)Nc2nnc(CC)o2)c1F [Compound 2-4] | 5 (Level 5: growth control rate is above 85%) | 5 (Level 5: growth control rate is above 85%) | 5 (Level 5: growth control rate is above 85%) | 5 (Level 5: growth control rate is above 85%) | 5 (Level 5: growth control rate is above 85%) | – | – | – | – | – |
| CC[S+]([O-])c1c(C(F)(F)F)ccc(C(=O)Nc2nnco2)c1F (centres unmarked) [Compound 3-5] | 5 (Level 5: growth control rate is above 85%) | 5 (Level 5: growth control rate is above 85%) | 5 (Level 5: growth control rate is above 85%) | 5 (Level 5: growth control rate is above 85%) | 5 (Level 5: growth control rate is above 85%) | – | – | – | – | – |
| CCC[S+]([O-])c1c(C(F)(F)F)ccc(C(=O)Nc2nnco2)c1F (centres unmarked) [Compound 3-8] | 5 (Level 5: growth control rate is above 85%) | 5 (Level 5: growth control rate is above 85%) | 5 (Level 5: growth control rate is above 85%) | 5 (Level 5: growth control rate is above 85%) | 5 (Level 5: growth control rate is above 85%) | – | – | – | – | – |

— patent publication US20230041563A1, “N-(1,3,4-OXADIAZOL-2-YL)ARYLCARBOXAMIDES OR SALTS THEREOF, PREPARATION METHODS, HERBICIDAL COMPOSITIONS AND USES THEREOF” (priority 2018, published 2023)
